From patent US20260167673A1, “NOVEL POLYPEPTIDE, POLYPEPTIDE DERIVATIVE AND USE THEREOF” (NANJING ANJI BIOTECHNOLOGY CO., LTD., priority 2023, published 2026)
Marks after values point to notes of the source that are not given here. Where no end group is shown, it is not given here.

Experiments:
[1] = test system: human malignant melanoma cells SK-mel-2; experiment: CCK8 proliferation inhibition, SK-mel-2; type: cell-based; conditions: SK-mel-2, 50 μM, 48 h
Method: (§1) Incubation was continued for 4 h in a cell incubator, an absorbance was measured at 450 nm, and a proliferation inhibition was calculated. Data was presented as mean±SD, and GraphPad Prism 5.0 statistical software was used. A t-test was used for comparison between two groups, while One-way Anova (Dunnett) was used for comparison among a plurality of groups.

[2] = test system: human cervical cancer cells Hela; experiment: CCK8 proliferation inhibition, Hela; type: cell-based; conditions: 50 μM, 48 h
Method: as §1

[3] = test system: human breast cancer cells SK-BR-3; experiment: CCK8 proliferation inhibition, SK-BR-3; type: cell-based; conditions: SK-BR-3, 50 μM, 48 h
Method: as §1

[4] = test system: human histiocytic lymphoma cells U937; experiment: CCK8 proliferation inhibition, U937; type: cell-based; conditions: U937, 50 μM, 48 h
Method: as §1

[5] = test system: human melanoma A375 cells; experiment: Transwell metastasis inhibition, A375; type: cell-based; conditions: 48 h
Method: (§2) Melanoma, cervical cancer, ovarian cancer, liver cancer, and lung cancer cells were seeded into transwell chambers, with 100 μL per well. Different doses of the HMMW micropeptide and the novel polypeptide HMMW15-51 were added to each chamber as a treatment group, while no drug was added to a blank group. Then, 0.6 mL of a complete culture medium containing 10% FBS was added to the lower chambers of the transwell to stimulate cell metastasis, and the cells were cultured at 5% CO2 and 37° C. for 48 h. The culture solution was discarded from the wells. The cells were fixed with methanol at room temperature for 30 min, stained with 0.1% crystal violet at room temperature for 10 min, and rinsed with clean water. The upper layer nonmetastatic cells were wiped off with a cotton swab. The cells were observed under a microscope, and four fields of view were selected to take photos and count the cells. A metastasis inhibition (MI) was calculated according to a formula: […]
(§3) where Ntest represents the number of cell metastases in the treatment group, and Ncontrol represents the number of cell metastases in the blank control group.
(§4) Data was presented as mean±SD, and GraphPad Prism 5.0 statistical software was used.

[6] = test system: human lymphoma cells Raji; experiment: CCK8 proliferation inhibition, Raji; type: cell-based; conditions: 50 μM, 48 h
Method: as §1

[7] = test system: human bladder cancer cells EJ; experiment: CCK8 proliferation inhibition, EJ; type: cell-based; conditions: 50 μM, 48 h
Method: as §1

[8] = test system: human small intestine cancer cells HIC; experiment: CCK8 proliferation inhibition, HIC; type: cell-based; conditions: 50 μM, 48 h
Method: as §1

[9] = test system: human diffuse large B-cell lymphoma (DLBCL) cells WSU-DLCL2; experiment: CCK8 proliferation inhibition, WSU-DLCL2; type: cell-based; conditions: WSU-DLCL2, 50 μM, 48 h
Method: as §1

[10] = test system: human nasopharyngeal carcinoma cells CNE-2Z; experiment: CCK8 proliferation inhibition, CNE-2Z; type: cell-based; conditions: 50 μM, 48 h
Method: as §1

[11] = test system: human papillary thyroid carcinoma cells NPPA87-1; experiment: CCK8 proliferation inhibition, NPPA87-1; type: cell-based; conditions: NPPA87-1, 50 μM, 48 h
Method: as §1

[12] = test system: human lung cancer A549 cells; experiment: Transwell metastasis inhibition, A549; type: cell-based; conditions: 48 h
Method: as §2, §3, §4

[13] = test system: human ileocecal cancer cells HCT-8; experiment: CCK8 proliferation inhibition, HCT-8; type: cell-based; conditions: HCT-8, 50 μM, 48 h
Method: as §1

[14] = test system: human laryngeal epidermoid carcinoma cells HEp2; experiment: CCK8 proliferation inhibition, HEp2; type: cell-based; conditions: HEp2, 50 μM, 48 h
Method: as §1

[15] = test system: human non-small cell lung cancer cells A549; experiment: CCK8 proliferation inhibition, A549; type: cell-based; conditions: A549, 50 μM, 48 h
Method: as §1

[16] = test system: human cervical cancer Hela cells; experiment: Transwell metastasis inhibition, Hela; type: cell-based; conditions: 50 μmol/L, 48 h
Method: as §2, §3, §4

[17] = test system: human colon cancer cells SW480; experiment: CCK8 proliferation inhibition, SW480; type: cell-based; conditions: SW480, 50 μM, 48 h
Method: as §1

[18] = test system: subcutaneous transplanted tumor model of tongue squamous cell carcinoma cells CAL27; experiment: CAL27 subcutaneous transplanted tumor model (Example 7); type: in vivo, BALB/c nude mice; conditions: 2.7 μM/kg, FIG. 10
Method: (1) A large number of human tongue squamous cell carcinoma CAL27 cells were cultured and digested with a 0.25% trypsin solution. After digestion was terminated, a cell suspension was centrifuged at 1000 rpm for 5 min, and the cells were resuspended in a serum-free DMEM culture medium and counted. The cell concentration was adjusted to 5×10^7 cells/mL.
(2) BALB/c nude mice (4-6 week old, female, weighing 14-16 g, adaptively fed in an SPF animal feeding room for 1 week) were inoculated with 100 μL of cell suspensions of corresponding groups under the left axilla, with an injection volume of 5×10^6 cells/mouse;
(3) After inoculation, the tumor growth at the inoculation sites of the nude mice was closely observed. On the 7th day after inoculation, white nodules appeared at the inoculation sites and could move subcutaneously upon touch. As the tumor tissues grew, hard tumor blocks gradually formed at the inoculation sites, and the average volume of the tumor tissues reached 80 mm^3 in about 14 days. The BALB/c nude mice were randomly divided into 3 groups (a normal saline group served as a blank control, and the dose of the micropeptide HMMW and the novel polypeptide HMMW15-51 was 2.7 μM/kg), with 10 mice in the blank group and 6 mice in each other group. […]
(4) The volume of the transplanted tumor was measured and recorded every three days. […]

MERAGVPGFSPRRSSVEAKMQSTSCSVRKSSTVTAWPAVVLLLSWGQRRGG [HMMW]
Inhibition (%) [1]: 46.311 ± 4.884 % | OD [1]: 0.466 ± 0.042 | Inhibition (%) [2]: 52.644 ± 4.018 % | OD [2]: 0.493 ± 0.049 | Inhibition (%) [3]: 53.710 ± 4.902 % | OD [3]: 0.507 ± 0.054 | Inhibition (%) [4]: 36.042 ± 2.134 % | OD [4]: 0.855 ± 0.029 | Number of cell metastases ([5]; A375, 50 μmol/L): 371 ± 13.00 | Inhibition (%) ([5]; A375 metastasis, 50 μmol/L): 37.13*** % | Inhibition (%) [6]: 54.560 ± 3.675 % | OD [6]: 0.576 ± 0.047 | Inhibition (%) [7]: 47.820 ± 1.486 % | OD [7]: 0.638 ± 0.018 | Inhibition (%) [8]: 50.213 ± 2.165 % | OD [8]: 0.507 ± 0.022 | Inhibition (%) [9]: 44.365 ± 2.462 % | OD [9]: 0.731 ± 0.032 | Inhibition (%) [10]: 50.952 ± 4.312 % | OD [10]: 0.472 ± 0.042 | Inhibition (%) [11]: 48.192 ± 2.999 % | OD [11]: 0.478 ± 0.028 | Number of cell metastases ([12]; A549, 50 μmol/L): 33 ± 20.50 | Inhibition (%) ([12]; A549 metastasis, 50 μmol/L): 94.57*** % | Inhibition (%) [13]: 48.687 ± 3.785 % | OD [13]: 0.482 ± 0.036 | Inhibition (%) [14]: 42.416 ± 2.236 % | OD [14]: 0.504 ± 0.020 | Inhibition (%) [15]: 52.950 ± 2.023 % | OD [15]: 0.508 ± 0.022 | Inhibition (%) ([16]; Hela metastasis): 88.80*** % | Number of cell metastases ([16]; Hela): 115 ± 20.32 | Inhibition (%) [17]: 49.114 ± 2.626 % | OD [17]: 0.479 ± 0.025 | in vivo tumorigenicity of CAL27 cells compared with normal saline control [18]: significantly inhibit
